Patent publication US9765074B2, “Inhibitors of the renal outer medullary potassium channel” (Merck Sharp & Dohme Corp., priority 2013, dated 2017)

The compounds below were run against T1, hROMK (hKir1.1) (Homo sapiens, UniProt P48048) (assay: Thallium Flux Assay (ROMK channel functional thallium flux, FLIPR-Tetra)). Details: HEK293 cells stably expressing hROMK (hKir1.1); 30 min compound incubation.
T1 construct: expressed in transfected cells
T1 sequence (P48048 1-391): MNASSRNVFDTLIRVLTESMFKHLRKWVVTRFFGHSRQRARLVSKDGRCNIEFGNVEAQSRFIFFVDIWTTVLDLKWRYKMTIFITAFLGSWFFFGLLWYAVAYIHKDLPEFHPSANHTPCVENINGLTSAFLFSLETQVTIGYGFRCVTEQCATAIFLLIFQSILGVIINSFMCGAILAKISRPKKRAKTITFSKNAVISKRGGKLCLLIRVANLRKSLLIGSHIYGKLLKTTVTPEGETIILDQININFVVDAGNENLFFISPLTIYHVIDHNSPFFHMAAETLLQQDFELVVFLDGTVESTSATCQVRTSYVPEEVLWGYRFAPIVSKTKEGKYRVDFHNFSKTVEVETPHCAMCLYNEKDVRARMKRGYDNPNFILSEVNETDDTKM
Format: cell-based
Procedure, shortened: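 Thallium flux read by FluxOR fluorescence ([…]) for ~10 min after adding 3 mM Tl+/0.3 mM K+ final. Stable HEK-hKir1.1 cells were dye-loaded 90 min, exposed to compound 30 min at room temperature in ouabain/probenecid buffer; IC50 relative to a 3 μM control inhibitor.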

Row | Compound | IC50 [nM]
1 | CC1=CC2(CCN(C[C@H](O)c3ccc(-n4cnnn4)nn3)CC2)C(=O)N1C1=CC(=O)OC1 [Example 188, 8-{(2S)-2-hydroxy-2-[6-(1H-tetrazol-1-yl)pyridazin-3-yl]ethyl}-3-methyl-2-(5-oxo-2,5-dihydrofuran-3-yl)-2,8-diazaspiro[4.5]dec-3-en-1-one] | 50
2 | CC1OC(=O)C=C1N1C(=O)C2(CCN(C[C@H](O)c3ccc(-n4cnnn4)nc3)CC2)C[C@H]1C (single isomer, unassigned) [Example 230] | 80
3 | Cc1nc(-n2cnnn2)cnc1C(O)CN1CCC2(CC1)C[C@H](C)N(C1=CC(=O)OC1)C2=O (mixture of isomers) [Example 168, (3S)-8-{2-hydroxy-2-[3-methyl-5-(1H-tetrazol-1-yl)pyrazin-2-yl]ethyl}-3-methyl-2-(5-oxo-2,5-dihydrofuran-3-yl)-2,8-diazaspiro[4.5]decan-1-one] | 10
4 | Cc1nc(-n2cnnn2)ccc1[C@H](O)CN1CCC2(CC1)CCN(C1=CC(=O)OC1)C2=O [Example 4, 8-{(2S)-2-hydroxy-2-[2-methyl-6-(1H-tetrazol-1-yl)pyridin-3-yl]ethyl}-1-oxo-2-(5-oxo-2,5-dihydrofuran-3-yl)-2-aza-8-azoniaspiro[4.5]decane] | 50
5 | Cc1nc(-n2cnnn2)cnc1CCN1CCC2(CC1)C[C@H](C)N(C1=CC(=O)OC1)C2=O [Example 261, (3S)-3-methyl-8-{2-[3-methyl-5-(1H-tetrazol-1-yl)pyrazin-2-yl]ethyl}-2-(5-oxo-2,5-dihydrofuran-3-yl)-2,8-diazaspiro[4.5]decan-1-one] | 3
6 | CC1CC2(CCN(C(C)(C)C(O)c3cnc(-n4cnnn4)cn3)CC2)C(=O)N1C1=CC(=O)OC1 (single isomer, unassigned) [Example 301, 8-(1-(5-(1H-tetrazol-1-yl)pyrazin-2-yl)-1-hydroxy-2-methylpropan-2-yl)-3-methyl-2-(5-oxo-2,5-dihydrofuran-3-yl)-2,8-diazaspiro[4.5]decan-1-one] | 10
7 | CC1=C(N2CCC3(CCN(C[C@@H](O)c4cncc(-n5cnnn5)c4)CC3)C2=O)COC1=O [Example 132, 8-{(2S)-2-hydroxy-2-[5-(1H-tetrazol-1-yl)pyridin-3-yl]ethyl}-2-(4-methyl-5-oxo-2,5-dihydrofuran-3-yl)-1-oxo-2-aza-8-azoniaspiro[4.5]decane] | 640
8 | CC1=C(N2CCC3(CCN(C[C@H](O)c4ccc(-n5cnnn5)cn4)CC3)C2=O)COC1=O [Example 22, 8-{(2S)-2-hydroxy-2-[5-(1H-tetrazol-1-yl)pyridin-2-yl]ethyl}-2-(4-methyl-5-oxo-2,5-dihydrofuran-3-yl)-1-oxo-2-aza-8-azoniaspiro[4.5]decane] | 10
9 | CC1=C(N2CCC3(CCN(C[C@H](O)c4ccc(-n5cnnn5)cc4F)CC3)C2=O)COC1=O [Example 36, 8-{(2R)-2-[2-fluoro-4-(1H-tetrazol-1-yl)phenyl]-2-hydroxyethyl}-2-(4-methyl-5-oxo-2,5-dihydrofuran-3-yl)-1-oxo-2-aza-8-azoniaspiro[4.5]decane] | 10
10 | C[C@H]1CC2(CCN(C[C@H](O)c3cnc(-n4cnnn4)cn3)CC2)C(=O)N1C1=CC(=O)OC1 [Example 77, (3S)-8-{(2S)-2-hydroxy-2-[5-(1H-tetrazol-1-yl)pyrazin-2-yl]ethyl}-3-methyl-1-oxo-2-(5-oxo-2,5-dihydrofuran-3-yl)-2-aza-8-azoniaspiro[4.5]decane] | 10
11 | CC1=C(N2CCC3(CC4CCC(C3)N4C[C@@H](O)c3cnc(-n4cnnn4)cn3)C2=O)COC1=O (stereo partly drawn) [Example 49, (1R,5R)-8-{(2R)-2-hydroxy-2-[5-(1H-tetrazol-1-yl)pyrazin-2-yl]ethyl}-1′-(4-methyl-5-oxo-2,5-dihydrofuran-3-yl)-2′-oxospiro[8-azoniabicyclo[3.2.1]octane-3,3′-pyrrolidine]] | 90
12 | CC1=C(N2CCC3(CCN(C[C@@H](O)c4ccc(-n5cnnn5)nc4)CC3F)C2=O)COC1=O (single isomer, unassigned) [Example 195] | 10
13 | CC1=C(N2C(=O)C3(CCN(C[C@H](O)c4ccc(-n5cnnn5)nn4)CC3)CC2C)COC1=O (single isomer, unassigned) [Example 123] | 60
14 | CC1=C(N2CCC3(CCN(C[C@H](F)c4cnc(-n5cnnn5)cn4)CC3)C2=O)COC1=O [Example 276, (S)-8-(2-(5-(1H-Tetrazol-1-yl)pyrazin-2-yl)-2-fluoroethyl)-2-(4-methyl-5-oxo-2,5-dihydrofuran-3-yl)-2,8-diazaspiro[4.5]decan-1-one] | 50
15 | Cc1nc([C@@H](O)CN2CCC3(CC2)CCN(C2=CC(=O)OC2)C3=O)ccc1-n1cnnn1 [Example 5, 8-{(2S)-2-hydroxy-2-[6-methyl-5-(1H-tetrazol-1-yl)pyridin-2-yl]ethyl}-1-oxo-2-(5-oxo-2,5-dihydrofuran-3-yl)-2-aza-8-azoniaspiro[4.5]decane] | 40
16 | CC1=C(N2CCC3(CCN(C[C@H](O)c4ccc(-n5cnnn5)nn4)CC3F)C2=O)COC1=O (single isomer, unassigned) [Example 196] | 40
17 | CC1=C(N2CCC3(CCN(C[C@H](O)c4nnc(-n5cnnn5)c(C)c4C)CC3)C2=O)COC1=O [Example 69, 8-{(2S)-2-[4,5-dimethyl-6-(1H-tetrazol-1-yl)pyridazin-3-yl]-2-hydroxyethyl}-2-(4-methyl-5-oxo-2,5-dihydrofuran-3-yl)-1-oxo-2-aza-8-azoniaspiro[4.5]decane] | 40
18 | CC1=C(N2CC[C@]3(CCN(C[C@H](O)c4cnc(-n5cnnn5)cn4)CC3F)C2=O)COC1=O (mixture of isomers) [Example 224, 6-fluoro-8-{(2S)-2-hydroxy-2-[5-(1H-tetrazol-1-yl)pyrazin-2-yl]ethyl}-2-(4-methyl-5-oxo-2,5-dihydrofuran-3-yl)-1-oxo-2-aza-8-azoniaspiro[4.5]decane] | 110
19 | CO[C@@H](CN1CCC2(CC1)CCN(C1=C(C)C(=O)OC1)C2=O)c1ccc(-n2cnnn2)cn1 [Example 282, 8-{(2S)-2-methoxy-2-[5-(1H-tetrazol-1-yl)pyridin-2-yl]ethyl}-2-(4-methyl-5-oxo-2,5-dihydrofuran-3-yl)-1-oxo-2-aza-8-azoniaspiro[4.5]decane] | 70
20 | CC1=C(N2CCC3(CCN(CCc4ccc(-n5cnnn5)nn4)CC3F)C2=O)COC1=O (single isomer, unassigned) [Example 265, 6-fluoro-2-(4-methyl-5-oxo-2,5-dihydrofuran-3-yl)-8-{2-[6-(1H-tetrazol-1-yl)pyridazin-3-yl]ethyl}-2,8-diazaspiro[4.5]decan-1-one] | 10
21 | CC1=C(N2CCC3(CCN(C[C@H](F)c4ccc(-n5cnnn5)cn4)CC3)C2=O)COC1=O [Example 279, 8-{(2S)-2-fluoro-2-[5-(1H-tetrazol-1-yl)pyridin-2-yl]ethyl}-2-(4-methyl-5-oxo-2,5-dihydrofuran-3-yl)-1-oxo-2-aza-8-azoniaspiro[4.5]decane] | 20
22 | CC1OC(=O)C=C1N1C(=O)C2(CCN(C[C@H](O)c3ccc(-n4cnnn4)nc3)CC2)C[C@H]1C (single isomer, unassigned) [Example 231] | 1530
23 | CC1CC2(CC3CCC(C2)N3C[C@@H](O)c2cnc(-n3cnnn3)cn2)C(=O)N1C1=CC(=O)OC1 (single isomer, unassigned) [Example 92] | 20
24 | CC1=C(N2CCC3(CC4CCC(C3)N4C[C@H](O)c3nnc(-n4cnnn4)c(C)c3C)C2=O)COC1=O (stereo partly drawn) [Example 50, (1R,5R)-8-{(2S)-2-[4,5-dimethyl-6-(1H-tetrazol-1-yl)pyridazin-3-yl]-2-hydroxyethyl}-1′-(4-methyl-5-oxo-2,5-dihydrofuran-3-yl)-2′-oxospiro[8-azoniabicyclo[3.2.1]octane-3,3′-pyrrolidine]] | 20
25 | Cc1nc(-n2cnnn2)ccc1[C@H](O)CN1C2CCC1CC1(CCN(C3=CC(=O)OC3)C1=O)C2 (stereo partly drawn) [Example 42, (1R,5R)-8-{(2S)-2-hydroxy-2-[2-methyl-6-(1H-tetrazol-1-yl)pyridin-3-yl]ethyl}-2′-oxo-1′-(5-oxo-2,5-dihydrofuran-3-yl)spiro[8-azoniabicyclo[3.2.1]octane-3,3′-pyrrolidine]] | 20
26 | COCC1=C(N2CCC3(CCN(C[C@H](O)c4ccc(-n5cnnn5)nc4)CC3)C2=O)COC1=O [Example 182, 8-{(2R)-2-hydroxy-2-[6-(1H-tetrazol-1-yl)pyridin-3-yl]ethyl}-2-[4-(methoxymethyl)-5-oxo-2,5-dihydrofuran-3-yl]-2,8-diazaspiro[4.5]decan-1-one] | 50
27 | CC1(C)CC2(CCN(C[C@H](O)c3cnc(-n4cnnn4)cn3)CC2)C(=O)N1C1=CC(=O)OC1 [Example 164, 8-{(2S)-2-hydroxy-2-[5-(1H-tetrazol-1-yl)pyrazin-2-yl]ethyl}-3,3-dimethyl-1-oxo-2-(5-oxo-2,5-dihydrofuran-3-yl)-2-aza-8-azoniaspiro[4.5]decane] | 40
28 | CO[C@H](CN1CCC2(CC1)C[C@@H](C)N(C1=C(C)C(=O)OC1)C2=O)c1ccc(-n2cnnn2)nc1 [Example 287, (3R)-8-{(2S)-2-methoxy-2-[6-(1H-tetrazol-1-yl)pyridin-3-yl]ethyl}-3-methyl-2-(4-methyl-5-oxo-2,5-dihydrofuran-3-yl)-1-oxo-2-aza-8-azoniaspiro[4.5]decane] | 100
